Experiments:
wild oat = assay: Test B pre/postemergence wild oat; format: in vivo, Avena fatua; details: Preemergence; for Plant response rating, Wild oats: Rate 125 g/ha
In short: (§1)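 Response is a visual 0-to-10 score relative to untreated plants, where 0 means no effect and 10 means complete control, taken twelve to sixteen days after application. Treatments went onto soil at planting and onto foliage of 1- to 4-leaf plants, using a surfactant-containing non-phytotoxic solvent.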

bedstraw = assay: Test B pre/postemergence bedstraw; format: in vivo, Galium aparine; details: Preemergence; for Plant response rating, Bedstraw: Rate 125 g/ha
In short: as §1

crabgrass = assay: Test B pre/postemergence crabgrass; format: in vivo, Digitaria sanguinalis; details: Preemergence; for Plant response rating, Crabgrass: Rate 125 g/ha
In short: as §1

blackgrass = assay: Test B pre/postemergence blackgrass; format: in vivo, Alopecurus myosuroides; details: Preemergence; for Plant response rating, Blackgrass: Rate 125 g/ha
In short: as §1

wheat = assay: Test B pre/postemergence wheat; format: in vivo, Triticum aestivum; details: Preemergence; for Plant response rating, Wheat: Rate 125 g/ha
In short: as §1

giant foxtail = assay: Test B pre/postemergence giant foxtail; format: in vivo, Setaria faberii; details: Preemergence; for Plant response rating, Giant foxtail: Rate 125 g/ha
In short: as §1

corn = assay: Test B pre/postemergence corn; format: in vivo, Zea mays; details: Preemergence; for Plant response rating, Corn: Rate 125 g/ha
In short: as §1

soybean = assay: Test B pre/postemergence soybean; format: in vivo, Glycine max; details: Preemergence; for Plant response rating, Soybean: Rate 125 g/ha
In short: as §1

surinam grass = assay: Test B pre/postemergence surinam grass; format: in vivo, Brachiaria decumbens; details: Preemergence; for Plant response rating, B. signalgrass: Rate 125 g/ha
In short: as §1

morningglory = assay: Test B pre/postemergence morningglory; format: in vivo, Ipomoea hederacea; details: Preemergence; for Plant response rating, Morningglory: Rate 125 g/ha
In short: as §1

sugar beet = assay: Test B pre/postemergence sugar beet; format: in vivo, Beta vulgaris; details: Preemergence; for Plant response rating, Sugarbeets: Rate 125 g/ha
In short: as §1

pigweed = assay: Test B pre/postemergence pigweed; format: in vivo, Amaranthus retroflexus; details: Preemergence; for Plant response rating, Redroot pigweed: Rate 125 g/ha
In short: as §1

cocklebur = assay: Test B pre/postemergence cocklebur; format: in vivo, Xanthium strumarium; details: Preemergence; for Plant response rating, Cocklebur: Rate 125 g/ha
In short: as §1

rape = assay: Test B pre/postemergence rape; format: in vivo, Brassica napus; details: Preemergence; for Plant response rating, Rape: Rate 125 g/ha
In short: as §1

velvetleaf = assay: Test B pre/postemergence velvetleaf; format: in vivo, Abutilon theophrasti; details: Preemergence; for Plant response rating, Velvetleaf: Rate 125 g/ha
In short: as §1

purple nutsedge = assay: Test B pre/postemergence purple nutsedge; format: in vivo, Cyperus rotundus; details: Preemergence; for Plant response rating, Nutsedge: Rate 125 g/ha
In short: as §1

[1] = Rate 62 g/ha, scale of 0 to 10 where 0 is no effect and 10 is complete control
[2] = scale of 0 to 10 where 0 is no effect and 10 is complete control
[3] = Rate 250 g/ha, scale 0 (no effect) to 10 (complete control)
[4] = Rate 500 g/ha, scale 0 to 10 (0 no effect, 10 complete control)

COCC(OC)n1c(=O)on(C(=O)N(c2ccccc2)C(C)C)c1=O (stereo not shown) [Compound 734]
2: Morningglory plant response rating (morningglory; [1]) | Plant response rating, Morningglory (morningglory; [2]) | Plant response rating, Sugarbeets (sugar beet; [2]) | Redroot pigweed plant response rating (pigweed; [1]) | Plant response rating, Rape (rape; [2]) | Velvetleaf plant response rating (velvetleaf; [1])
6: Morningglory plant response rating (morningglory; [4])
8: Plant response rating, Wild oats (wild oat; [2]) | Wheat plant response rating (wheat; [3]) | Sugarbeets plant response rating (sugar beet; [4]) | Redroot pigweed plant response rating (pigweed; [3]) | Redroot pigweed plant response rating (pigweed; [4])
0: Bedstraw plant response rating (bedstraw; [1]) | Plant response rating, Bedstraw (bedstraw; [2]) | Bedstraw plant response rating (bedstraw; [3]) | Bedstraw plant response rating (bedstraw; [4]) | Wheat plant response rating (wheat; [1]) | Corn plant response rating (corn; [1]) | Soybean plant response rating (soybean; [1]) | Plant response rating, Soybean (soybean; [2]) | Soybean plant response rating (soybean; [3]) | Sugarbeets plant response rating (sugar beet; [1]) | Cocklebur plant response rating (cocklebur; [1]) | Plant response rating, Cocklebur (cocklebur; [2]) | Cocklebur plant response rating (cocklebur; [3]) | Cocklebur plant response rating (cocklebur; [4]) | Rape plant response rating (rape; [1]) | Nutsedge plant response rating (purple nutsedge; [1]) | Plant response rating, Nutsedge (purple nutsedge; [2]) | Nutsedge plant response rating (purple nutsedge; [3])
10: Wild oats plant response rating (wild oat; [3]) | Wild oats plant response rating (wild oat; [4]) | Crabgrass plant response rating (crabgrass; [4]) | Blackgrass plant response rating (blackgrass; [4]) | Plant response rating, Giant foxtail (giant foxtail; [2]) | Giant foxtail plant response rating (giant foxtail; [3]) | Giant foxtail plant response rating (giant foxtail; [4])
3: Wild oats plant response rating (wild oat; [1]) | Morningglory plant response rating (morningglory; [3]) | Plant response rating, Velvetleaf (velvetleaf; [2])
9: Crabgrass plant response rating (crabgrass; [1]) | Plant response rating, Crabgrass (crabgrass; [2]) | Crabgrass plant response rating (crabgrass; [3]) | Plant response rating, Blackgrass (blackgrass; [2]) | Blackgrass plant response rating (blackgrass; [3]) | Wheat plant response rating (wheat; [4]) | Giant foxtail plant response rating (giant foxtail; [1]) | Corn plant response rating (corn; [3]) | Corn plant response rating (corn; [4]) | B. signalgrass plant response rating (surinam grass; [1]) | Plant response rating, B. signalgrass (surinam grass; [2]) | B. signalgrass plant response rating (surinam grass; [3]) | B. signalgrass plant response rating (surinam grass; [4])
7: Blackgrass plant response rating (blackgrass; [1]) | Plant response rating, Wheat (wheat; [2]) | Soybean plant response rating (soybean; [4]) | Plant response rating, Redroot pigweed (pigweed; [2]) | Rape plant response rating (rape; [4]) | Velvetleaf plant response rating (velvetleaf; [4])
5: Plant response rating, Corn (corn; [2]) | Sugarbeets plant response rating (sugar beet; [3]) | Rape plant response rating (rape; [3]) | Velvetleaf plant response rating (velvetleaf; [3])

CCOC(CC)n1c(=O)on(C(=O)N(c2ccc(F)cc2)C(C)C)c1=O (stereo not shown) [Compound 742]
0: Plant response rating, Wild oats (wild oat; [2]) | Wild oats plant response rating (wild oat; [3]) | Wild oats plant response rating (wild oat; Rate 62 g/ha, scale 0 to 10) | Wild oats plant response rating (wild oat; [4]) | Plant response rating, Bedstraw (bedstraw; [2]) | Bedstraw plant response rating (bedstraw; [3]) | Bedstraw plant response rating (bedstraw; Rate 62 g/ha, scale 0 to 10) | Bedstraw plant response rating (bedstraw; [4]) | Plant response rating, Crabgrass (crabgrass; [2]) | Crabgrass plant response rating (crabgrass; [3]) | Crabgrass plant response rating (crabgrass; Rate 62 g/ha, scale 0 to 10) | Crabgrass plant response rating (crabgrass; [4]) | Plant response rating, Blackgrass (blackgrass; [2]) | Blackgrass plant response rating (blackgrass; [3]) | Blackgrass plant response rating (blackgrass; Rate 62 g/ha, scale 0 to 10) | Blackgrass plant response rating (blackgrass; [4]) | Plant response rating, Wheat (wheat; [2]) | Wheat plant response rating (wheat; [3]) | Wheat plant response rating (wheat; Rate 62 g/ha, scale 0 to 10) | Wheat plant response rating (wheat; [4]) | Plant response rating, Giant foxtail (giant foxtail; [2]) | Giant foxtail plant response rating (giant foxtail; [3]) | Giant foxtail plant response rating (giant foxtail; Rate 62 g/ha, scale 0 to 10) | Giant foxtail plant response rating (giant foxtail; [4]) | Plant response rating, Corn (corn; [2]) | Corn plant response rating (corn; [3]) | Corn plant response rating (corn; Rate 62 g/ha, scale 0 to 10) | Corn plant response rating (corn; [4]) | Plant response rating, Soybean (soybean; [2]) | Soybean plant response rating (soybean; [3]) | Soybean plant response rating (soybean; Rate 62 g/ha, scale 0 to 10) | Soybean plant response rating (soybean; [4]) | B. signalgrass plant response rating (surinam grass; [1]) | Plant response rating, B. signalgrass (surinam grass; [2]) | B. signalgrass plant response rating (surinam grass; [3]) | B. signalgrass plant response rating (surinam grass; [4]) | Plant response rating, Morningglory (morningglory; [2]) | Morningglory plant response rating (morningglory; [3]) | Morningglory plant response rating (morningglory; Rate 62 g/ha, scale 0 to 10) | Morningglory plant response rating (morningglory; [4]) | Plant response rating, Sugarbeets (sugar beet; [2]) | Sugarbeets plant response rating (sugar beet; [3]) | Sugarbeets plant response rating (sugar beet; Rate 62 g/ha, scale 0 to 10) | Sugarbeets plant response rating (sugar beet; [4]) | Plant response rating, Redroot pigweed (pigweed; [2]) | Redroot pigweed plant response rating (pigweed; [3]) | Redroot pigweed plant response rating (pigweed; Rate 62 g/ha, scale 0 to 10) | Redroot pigweed plant response rating (pigweed; [4]) | Plant response rating, Cocklebur (cocklebur; [2]) | Cocklebur plant response rating (cocklebur; [3]) | Cocklebur plant response rating (cocklebur; Rate 62 g/ha, scale 0 to 10) | Cocklebur plant response rating (cocklebur; [4]) | Plant response rating, Rape (rape; [2]) | Rape plant response rating (rape; [3]) | Rape plant response rating (rape; Rate 62 g/ha, scale 0 to 10) | Rape plant response rating (rape; [4]) | Plant response rating, Velvetleaf (velvetleaf; [2]) | Velvetleaf plant response rating (velvetleaf; [3]) | Velvetleaf plant response rating (velvetleaf; Rate 62 g/ha, scale 0 to 10) | Velvetleaf plant response rating (velvetleaf; [4]) | Plant response rating, Nutsedge (purple nutsedge; [2]) | Nutsedge plant response rating (purple nutsedge; [3]) | Nutsedge plant response rating (purple nutsedge; Rate 62 g/ha, scale 0 to 10) | Nutsedge plant response rating (purple nutsedge; [4])
